{"source": "patent US10106833B2", "about": "“Methods and compounds for identifying glycosyltransferase inhibitors” (priority 2012, dated 2018)", "key": {"E. coli PBP1b [1]": {"biological_target": "T1, E. coli PBP1b (Escherichia coli, UniProt P02919)", "T1 sequence (P02919 whole entry)": "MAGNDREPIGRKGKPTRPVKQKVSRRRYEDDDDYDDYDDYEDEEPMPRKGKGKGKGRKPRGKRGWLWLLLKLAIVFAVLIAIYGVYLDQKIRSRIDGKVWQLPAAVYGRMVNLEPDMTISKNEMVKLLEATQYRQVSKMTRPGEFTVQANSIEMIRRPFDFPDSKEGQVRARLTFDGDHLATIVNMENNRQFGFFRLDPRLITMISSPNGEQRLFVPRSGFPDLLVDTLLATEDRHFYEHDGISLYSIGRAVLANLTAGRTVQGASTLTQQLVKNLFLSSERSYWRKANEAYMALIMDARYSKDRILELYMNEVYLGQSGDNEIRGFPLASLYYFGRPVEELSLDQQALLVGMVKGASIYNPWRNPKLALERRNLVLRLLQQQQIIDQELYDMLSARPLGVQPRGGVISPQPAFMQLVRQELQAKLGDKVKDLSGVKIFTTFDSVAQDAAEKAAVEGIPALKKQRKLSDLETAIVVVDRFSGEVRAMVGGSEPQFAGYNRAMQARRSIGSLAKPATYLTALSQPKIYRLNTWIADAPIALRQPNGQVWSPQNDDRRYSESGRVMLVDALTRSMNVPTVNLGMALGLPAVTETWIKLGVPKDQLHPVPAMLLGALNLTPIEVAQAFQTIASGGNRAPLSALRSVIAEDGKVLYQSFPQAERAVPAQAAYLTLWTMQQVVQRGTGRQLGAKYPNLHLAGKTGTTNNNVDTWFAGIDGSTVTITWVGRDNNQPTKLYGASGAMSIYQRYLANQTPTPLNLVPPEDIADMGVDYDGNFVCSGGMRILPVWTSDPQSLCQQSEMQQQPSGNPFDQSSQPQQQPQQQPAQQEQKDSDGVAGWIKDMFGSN", "test": "Displacement of probe compound S16 (CMG121) from E. coli PBP1b, decrease in fluorescence polarization on addition of test compound", "assay_type": "binding", "procedure": "(§1) Solution containing 10 mM TRIS (pH=8.0), 100 mM NaCl, 0.3% DMSO, 75 nM S16, and bacterial glycosyltransferase (E. coli PBP1b c=2.2 uM; E. faecalis PBP2a c=5.1 uM; S. aureus SgtB c=2.1 uM) were allowed to equilibrate for 30 min at 0° C. and then serially diluted (1/1 dilutions) into buffer containing 10 mM TRIS (pH=8.0), 100 mM NaCl, 0.3% DMSO, and 75 nM S16. After equilibration at 0° C. for 30 min the 20 μL of the solutions were transferred to a black 384 well plate (Corning NBS Low Volume) and fluorescence polarization (FP, ex: 480 nm; em: 535 nm) was measured using a Perkin Elmer Envision microplate reader. Each series was performed in duplicate and the data was plotted FP vs. concentration of enzyme. For determination of the KD, the average FP values were converted to fluorescence anisotropy and fitted to the standard equation describing an equilibrium L+E<->LE (L=ligand; E=enzyme; LE=ligand enzyme complex) using GraphPad Prism 5.0 (GraphPad Software, Inc.; La Jolla, Calif., USA). The KD values for probe S16 are: E. coli PBP1b: 0.15; E. faecalis PBP2a: 0.38; […]\n(§2) For determination of the Ki, the average FP values were first converted to fluorescence anisotropy."}, "E. faecalis PBP2a": {"biological_target": "E. faecalis PBP2a (Enterococcus faecalis, UniProt Q837Z4)", "sequence (Q837Z4 entry or part of it)": "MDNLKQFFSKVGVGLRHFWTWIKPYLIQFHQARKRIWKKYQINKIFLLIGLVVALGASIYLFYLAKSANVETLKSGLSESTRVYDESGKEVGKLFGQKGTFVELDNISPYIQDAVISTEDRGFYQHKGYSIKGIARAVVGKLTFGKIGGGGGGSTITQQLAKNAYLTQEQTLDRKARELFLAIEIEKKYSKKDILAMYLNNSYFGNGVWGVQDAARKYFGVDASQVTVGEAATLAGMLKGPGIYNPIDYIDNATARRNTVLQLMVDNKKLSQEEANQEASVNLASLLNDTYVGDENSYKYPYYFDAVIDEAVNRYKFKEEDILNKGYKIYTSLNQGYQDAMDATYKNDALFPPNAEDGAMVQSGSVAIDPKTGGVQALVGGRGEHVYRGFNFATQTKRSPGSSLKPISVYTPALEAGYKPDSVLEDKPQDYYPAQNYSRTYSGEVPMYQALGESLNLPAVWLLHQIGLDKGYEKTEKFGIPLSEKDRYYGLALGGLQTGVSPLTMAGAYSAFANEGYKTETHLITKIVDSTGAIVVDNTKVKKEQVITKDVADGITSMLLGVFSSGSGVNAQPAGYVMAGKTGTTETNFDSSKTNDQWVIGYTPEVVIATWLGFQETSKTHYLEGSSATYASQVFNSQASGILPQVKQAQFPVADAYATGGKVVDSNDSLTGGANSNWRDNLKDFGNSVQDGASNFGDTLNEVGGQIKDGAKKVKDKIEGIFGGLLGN", "test": "Displacement of probe compound S16 (CMG121) from E. faecalis PBP2a, decrease in fluorescence polarization on addition of test compound", "assay_type": "binding", "settings": "read-out: E. faecalis PBP2a Kd; FIG. 2; FP displacement; 75 nM probe S16, 0.38-0.46 uM PBP2a, 10 mM TRIS pH 8.0, 100 mM NaCl, 0° C. 30 min", "procedure": "as §1, §2"}, "S. aureus SgtB [2]": {"biological_target": "S. aureus SgtB (Staphylococcus aureus, UniProt Q99T05)", "test": "Displacement of probe compound S16 (CMG121) from S. aureus SgtB, decrease in fluorescence polarization on addition of test compound", "assay_type": "binding", "settings": "read-out: S. aureus SgtB Kd; FIG. 2; FP displacement; 75 nM probe S16, 0.2-0.25 uM SgtB, 10 mM TRIS pH 8.0, 100 mM NaCl, 0° C. 30 min", "procedure": "Solution containing 10 mM TRIS (pH=8.0), 100 mM NaCl, 0.3% DMSO, 75 nM S16, and bacterial glycosyltransferase (E. coli PBP1b c=2.2 uM; E. faecalis PBP2a c=5.1 uM; S. aureus SgtB c=2.1 uM) were allowed to equilibrate for 30 min at 0° C. and then serially diluted (1/1 dilutions) into buffer containing 10 mM TRIS (pH=8.0), 100 mM NaCl, 0.3% DMSO, and 75 nM S16. After equilibration at 0° C. for 30 min the 20 μL of the solutions were transferred to a black 384 well plate (Corning NBS Low Volume) and fluorescence polarization (FP, ex: 480 nm; em: 535 nm) was measured using a Perkin Elmer Envision microplate reader. Each series was performed in duplicate and the data was plotted FP vs. concentration of enzyme. For determination of the KD, the average FP values were converted to fluorescence anisotropy and fitted to the standard equation describing an equilibrium L+E<->LE (L=ligand; E=enzyme; LE=ligand enzyme complex) using GraphPad Prism 5.0 (GraphPad Software, Inc.; La Jolla, Calif., USA). The KD values for probe S16 are: E. coli PBP1b: 0.15; E. faecalis PBP2a: 0.38;\nS. aureus SgtB: 0.18. Probe CMG121 (75 nM) is displaced from S. aureus SgtB (0.2 μM) by addition of either moenomycin or the weaker PGT inhibitor disaccharide S15, as evidenced by reduction of FP. […]\nas §2"}, "[3]": {"system": "bacterial glycosyltransferase (E. coli PBP1b; E. faecalis PBP2a; S. aureus SgtB)", "test": "Assay validation: displacement of probe compound from enzyme (fluorescence polarization)", "assay_type": "binding", "settings": "75 nM probe S16; test compound up to ca. 200 uM", "procedure": "(§3) To equilibrated solutions containing 10 mM TRIS (pH=8.0), 100 mM NaCl, 75 nM S16, and bacterial glycosyltransferase (E. coli PBP1b c=0.1-0.15 uM; E. faecalis PBP2a c=0.38-0.46 uM; S. aureus SgtB c=0.2-0.25 uM) was added the test compound in DMSO or DMSO/H2O solutions (stock solutions were typically 2 mM) to obtain a final concentration of test compound of ca. 200 uM. These solutions were serially diluted (1/1 dilutions) into buffer containing 10 mM TRIS (pH=8.0), 100 mM NaCl, 75 nM Probe CMG121, and bacterial glycosyl transferase (E. coli PBP1b c=0.1-0.15 uM; E. faecalis PBP2a c=0.38-0.46 uM; S. aureus SgtB c=0.2-0.25 uM). After equilibration at 0° C. for 30 min the 20 μL of the solutions were transferred to a black 384 well plate (Corning NBS Low Volume) and fluorescence polarization (FP, ex: 480 nm; em: 535 nm) was measured using a Perkin Elmer Envision microplate reader. Each series was performed in duplicate and the data was plotted FP vs. concentration of test compound."}, "S. aureus SgtB [4]": {"biological_target": "S. aureus SgtB", "test": "Fluorescence polarization probe competition (Ki)", "assay_type": "binding", "settings": "probe CMG121 75 nM, S. aureus SgtB 0.2 μM; read-out: Ki (displacement of probe CMG121)", "procedure": "as §3, with “Each series was performed in duplicate and the data was plotted FP vs. concentration of test compound.” left out\nA black 384 well plate (Corning NBS Low Volume No. 3820) was filled (10 μL per well) with an equilibrated solution containing 10 mM TRIS (pH=8.0), 100 mM NaCl, 75 nM disaccharide S15, and 1.0-1.5 μM S. aureus SgtB (depending on protein batch). […] The plate was incubated at 4° C. for 30 min and read with an Perkin Elmer EnVision microplate reader as described above. […]\nFor determination of the Ki, the average FP values were first converted to fluorescence anisotropy. […]"}, "E. coli PBP1b [5]": {"biological_target": "T1, E. coli PBP1b", "test": "In vitro PGT inhibition, PG formation from 14C-lipid II", "assay_type": "biochemical", "settings": "E. coli PBP1b 50 nM, lipid II 4 μM", "procedure": "(§4) A solutions of S. aureus SgtB (50 nM) in 12.5 mM HEPES (pH=7.5), 2 mM MnCl2, and 250 μM tween-80 (8 μL) were incubated with DMSO solutions containing the inhibitor of interest in different concentrations (1 μL) for 20 min. Then ^14C-labelled lipid II (1 μL, 40 μM, ^14C/^12C 1/3) was added and the polymerization reaction was allowed to proceed for 25 min at room temperature. The reaction was quenched with 10 μL of a solution of moenomycin (1 μM) in 10% triton-X reduced and the remaining lipid II was separated from peptidoglycan (PG) using paper strip chromatography (isobutyric acid/1M NH4OH 5/3). Using a scintillation counter the ratio of radioactivity in PG to total radioactivity was determined and plotted vs. inhibitor concentration. IC50s were determined using the curve fitting program GraphPad Prism 5.0 (GraphPad Software, Inc.; La Jolla, Calif., USA).\nSolutions of the PGT (50 nM) in 50 mM HEPES (pH=7.5), 10 mM CaCl2, and […] PenG (8 μL) were incubated with DMSO solutions containing the inhibitor of interest in different concentrations (1 μL) for 20 min. Then ^14C-labelled lipid II (1 μL, 40 μM, ^14C/^12C 1/3) was added and the polymerization reaction was allowed to proceed for 25 min at room temperature. The reaction was quenched and processed as described above."}, "S. aureus SgtB [6]": {"biological_target": "T2, S. aureus SgtB (Staphylococcus aureus, UniProt Q93Q23)", "T2 sequence (Q93Q23 1-269)": "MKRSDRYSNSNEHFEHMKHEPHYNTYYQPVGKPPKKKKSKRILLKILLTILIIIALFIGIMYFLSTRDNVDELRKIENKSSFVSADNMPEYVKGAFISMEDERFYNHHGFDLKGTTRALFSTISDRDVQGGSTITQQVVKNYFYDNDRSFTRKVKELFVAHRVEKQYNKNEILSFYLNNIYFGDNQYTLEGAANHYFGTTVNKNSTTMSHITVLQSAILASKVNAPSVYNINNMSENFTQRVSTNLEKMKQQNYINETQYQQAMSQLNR", "test": "In vitro PGT inhibition, PG formation from 14C-lipid II", "assay_type": "biochemical", "settings": "S. aureus SgtB 50 nM, lipid II 4 μM", "procedure": "as §4"}, "Gram-positive organisms": {"system": "Gram-positive organisms", "settings": "against Gram-positive organisms; cited from earlier work"}}, "data": [{"molecule": "C=C(C/C=C(\\C)CCC=C(C)C)CCC(C)(C)/C=C/CC/C(C)=C\\CO[C@H](COP(=O)(O)O[C@H]1O[C@H](C(N)=O)[C@@](C)(O)[C@H](OC(N)=O)[C@H]1O[C@@H]1O[C@H](CO[C@@H]2O[C@H](CO)[C@@H](O)[C@H](O)[C@H]2O)[C@@H](O[C@@H]2O[C@H](C)[C@@H](O[C@@H]3O[C@H](C(=O)NC4=C(O)CCC4=O)[C@H](O)[C@H](O)[C@H]3O)[C@H](O)[C@H]2NC(C)=O)[C@H](O)[C@H]1NC(C)=O)C(=O)O", "note": "[Moenomycin A]", "values": [{"measurement": "Kd", "setting": "E. coli PBP1b [1]; read-out: E. coli PBP1b Kd, FIG. 2, FP displacement, 75 nM probe S16, 0.1-0.15 uM PBP1b, 10 mM TRIS pH 8.0, 100 mM NaCl, 0° C. 30 min", "value": 3900, "unit": "nM"}, {"measurement": "Kd", "setting": "E. faecalis PBP2a", "value": 950, "unit": "nM"}, {"measurement": "Kd", "setting": "S. aureus SgtB [2]", "value": 1100, "unit": "nM"}]}, {"molecule": "CCCCCCCCCCCCO[C@@H]1O[C@H](CO)[C@@H](O[C@H]2O[C@H](CO)[C@@H](O)[C@H](O)[C@H]2O)[C@H](O)[C@H]1O", "note": "[dodecyl-β-D-maltoside]", "values": [{"measurement": "Displacement of the probe compound (change in fluorescence polarization) on addition of test compound", "setting": "[3]", "value": "does not displace"}]}, {"molecule": "C=C(C/C=C(\\C)CCC=C(C)C)CCC(C)(C)/C=C/CC/C(C)=C\\CO[C@H](COP(=O)(O)O[C@H]1O[C@H](C(N)=O)[C@@](C)(O)[C@H](OC(N)=O)[C@H]1O[C@@H]1O[C@H](CO[C@@H]2O[C@H](CO)[C@@H](O)[C@H](O)[C@H]2O)[C@@H](O[C@@H]2O[C@H](C)[C@@H](O[C@@H]3O[C@H](C(=O)NC4=C(O)CCC4=O)[C@H](O)[C@H](O)[C@H]3O)[C@H](O)[C@H]2NC(C)=O)[C@H](O)[C@H]1NC(C)=O)C(=O)O", "note": "[moenomycin A]", "values": [{"measurement": "Ki", "setting": "S. aureus SgtB [4]", "value": 640, "unit": "nM"}, {"measurement": "IC50", "setting": "E. coli PBP1b [5]", "value": 12, "unit": "nM"}, {"measurement": "IC50", "setting": "S. aureus SgtB [6]", "value": 6, "unit": "nM"}, {"measurement": "Displacement of the probe compound (change in fluorescence polarization) on addition of test compound", "setting": "[3]", "value": "decrease in fluorescence polarization"}, {"measurement": "Potency relative to vancomycin", "setting": "Gram-positive organisms", "value": "10-1000 times"}]}, {"molecule": "CC(=O)N[C@H]1[C@H](O[C@H]2[C@H](O)[C@@H](NC(C)=O)[C@H](O[C@H]3[C@@H](OP(=O)(O)OC[C@@H](OC/C=C(/C)CCC=C(C)C)C(=O)O)O[C@H](C(N)=O)[C@@](C)(O)[C@@H]3OC(N)=O)O[C@@H]2CO[C@@H]2O[C@H](CO)[C@@H](O)[C@H](O)[C@H]2O)O[C@H](C)[C@@H](O[C@@H]2O[C@H](C(=O)NC3=C(O)CCC3=O)[C@H](O)[C@H](O)[C@H]2O)[C@@H]1O", "note": "[neryl-Moenomycin A (n-MmA), neryl-moenomycin A]", "values": [{"measurement": "IC50", "setting": "E. coli PBP1b [1]; FIG. 6, printed on the figure showing FP displacement of the probe by neryl-moenomycin A", "value": 200, "unit": "nM"}]}, {"molecule": "CC(=O)N[C@H]1[C@H](O[C@H]2[C@H](O)[C@@H](NC(C)=O)[C@H](O[C@H]3[C@@H](OP(=O)(O)OC[C@@H](OC/C=C(/C)CCC=C(C)C)C(=O)O)O[C@H](C(N)=O)[C@@](C)(O)[C@@H]3OC(N)=O)O[C@@H]2CO[C@@H]2O[C@H](CO)[C@@H](O)[C@H](O)[C@H]2O)O[C@H](C)[C@@H](O[C@@H]2O[C@H](C(=O)NC3=C(O)CCC3=O)[C@H](O)[C@H](O)[C@H]2O)[C@@H]1O", "note": "[neryl-moenomycin A]", "values": [{"measurement": "Displacement of the probe compound (change in fluorescence polarization) on addition of test compound", "setting": "[3]", "value": "decrease in fluorescence polarization"}]}, {"molecule": "CCCCCCCCCCCCCC(=O)OC[C@H](COP(=O)(O)OCC(O)COP(=O)(O)OC[C@@H](COC(=O)CCCCCCCCCCCCC)OC(=O)CCCCCCCCCCCCC)OC(=O)CCCCCCCCCCCCC", "note": "(stereo partly drawn) [tetramystryl cardiolipin]", "values": [{"measurement": "Displacement of the probe compound (change in fluorescence polarization) on addition of test compound", "setting": "[3]", "value": "partial displacement"}]}, {"molecule": "ZE-farnesyl-moenomycin A", "values": [{"measurement": "Displacement of the probe compound (change in fluorescence polarization) on addition of test compound", "setting": "[3]", "value": "decrease in fluorescence polarization"}]}, {"molecule": "nC12-moenomycin A", "values": [{"measurement": "Displacement of the probe compound (change in fluorescence polarization) on addition of test compound", "setting": "[3]", "value": "decrease in fluorescence polarization"}]}, {"molecule": "nC20-moenomycin A", "values": [{"measurement": "Displacement of the probe compound (change in fluorescence polarization) on addition of test compound", "setting": "[3]", "value": "decrease in fluorescence polarization"}]}]}
